Experimental findings from US5366966A, “Compound UCE6” (Kyowa Hakko Kogyo Co., Ltd., priority 1992, dated 1994) are described below.

One series is described as follows: Solubility. It counts as physicochemical.
For the next series, the system named is HeLaS3 cells. Description: Inhibition on the Growth of HeLaS3 Cells (Neutral Red staining). It counts as cell-based. As to conditions: Homo sapiens, HeLa S3, 72 hours at 37° C., absorbance at 550 nm, read-out: IC50 (the concentration of the test compound capable of inhibiting the growth of the cells at a ratio of 50%). The procedure:
(A) Inhibition on the Growth of HeLaS3 Cells
0.1 ml portions of a 3×10^4 cell/ml suspension of HeLaS3 cells [American Type Culture Collection (ATCC) CCL2.2]. in Minimum Essential Medium (MEM) medium (mfd. by Nissui Seiyaku) containing 10% of calf fetal serum and 2 mM of glutamine (hereinafter referred to as the medium A) were pipetted into a 96-well microtiter plate. 0.05 ml of the test compound optionally diluted with the medium A is added to each well, followed by incubating in a carbon dioxide gas incubator at 37° C. for 72 hours. After removing supernatant the culture 0.1 ml of the medium A containing 0.02% of Neutral Red is added to the residue. The cells are cultivated in the carbon dioxide gas incubator at 37° C. for additional one hour to thereby stain the cells. After removing the supernatant of culture, the residue was washed with saline once. The pigment is extracted with 0.001 N hydrochloric acid/30% ethanol and the absorbance at 550 nm is measured with a microplate reader. Then IC50 (the concentration of the test compound capable of inhibiting the growth of the cells at a ratio of 50%) is calculated on the basis of the comparison between the absorbance of untreated cells and that of the test compound-treated cells (at various concentration of the test compound).

As to `Cc1c(O)cc2c(c1O)C(=O)c1c(cc3cc(O)cc(CC(=O)CC(C)O)c3c1O)C2=O` (stereo not drawn) [UCE6], the Solubility result in “Solubility” (in dimethylsulfoxide (DMSO), N,N-dimethylformamide and pyridine) is “soluble”; in “Solubility” (in water, ethanol, methanol, ethyl acetate and chloroform), “hardly soluble”. The IC50 in the series with HeLaS3 cells came to 0.018 µM.
